Measurements as given in ChEMBL document CHEMBL4017512 (J Med Chem, 2017).

How the values were obtained:
[1] = test system: HCT-116; assay: Antiproliferative activity against human HCT116 cells after 72 hrs by phosphatase assay; format: functional, cell-based; details: HCT-116, 72 h
[2] = Cytotoxicity against human HCT116/VM46 cells assessed as reduction in cell viability after 72 hrs by phosphatase assay; format: cell-based; details: HCT-116/VM46, 72 h
[3] = test system: L1210; assay: Antiproliferative activity against mouse L1210 cells after 72 hrs by phosphatase assay; format: functional, cell-based; details: L1210, 72 h
[4] = Displacement of BODIPY-labeled vinblastine from tubulin (unknown origin) at 18 uM after 60 mins by fluorescence assay relative to control; details: Homo sapiens
[5] = Antiproliferative activity against human HCT116/VP35 cells after 72 hrs by phosphatase assay; format: functional, cell-based; details: HCT-116, 72 h
[6] = test system: LNCaP; assay: Antiproliferative activity against human LNCAP cells after 72 hrs by phosphatase assay; format: functional, cell-based
[7] = test system: LS174T; assay: Antiproliferative activity against human LS174T cells after 72 hrs by phosphatase assay; format: functional, cell-based
[8] = test system: MDA-MB-468; assay: Antiproliferative activity against human MDA-MB-468 cells after 72 hrs by phosphatase assay; format: functional, cell-based; details: MDA-MB-468, 72 h
[9] = test system: NCI-H520; assay: Antiproliferative activity against human NCI-H520 cells after 72 hrs by phosphatase assay; format: functional, cell-based; details: NCI-H520, 72 h
[10] = test system: PA-1; assay: Antiproliferative activity against human PA1 cells after 72 hrs by phosphatase assay; format: functional, cell-based; details: PA-1, 72 h
[11] = Cytotoxicity against human HCT116/VM46 cells assessed as reduction in cell viability; format: cell-based; details: HCT-116/VM46
[12] = test system: L1210; assay: Antiproliferative activity against mouse L1210 cells; format: functional, cell-based
[13] = target: MDR1 (ABCB1, P-gp) ATPase (Homo sapiens, UniProt P08183); assay: Inhibition of MDR1 (unknown origin) ATPase activity expressed in sf9 cell membranes assessed as residual activity at 20 uM using ATP as substrate preincubated for 5 mins followed by substrate addition measured after 20 mins by spectrophotometric method relative to control; details: Sf9 cell membranes expressing MDR1, probe ATP, read-out: Activity
[14] = Apparent permeability from basolateral to apical side in human Caco2 cells; format: ADME, cell-based; details: Caco-2

Chain of MDR1 (ABCB1, P-gp) ATPase (P08183 whole entry): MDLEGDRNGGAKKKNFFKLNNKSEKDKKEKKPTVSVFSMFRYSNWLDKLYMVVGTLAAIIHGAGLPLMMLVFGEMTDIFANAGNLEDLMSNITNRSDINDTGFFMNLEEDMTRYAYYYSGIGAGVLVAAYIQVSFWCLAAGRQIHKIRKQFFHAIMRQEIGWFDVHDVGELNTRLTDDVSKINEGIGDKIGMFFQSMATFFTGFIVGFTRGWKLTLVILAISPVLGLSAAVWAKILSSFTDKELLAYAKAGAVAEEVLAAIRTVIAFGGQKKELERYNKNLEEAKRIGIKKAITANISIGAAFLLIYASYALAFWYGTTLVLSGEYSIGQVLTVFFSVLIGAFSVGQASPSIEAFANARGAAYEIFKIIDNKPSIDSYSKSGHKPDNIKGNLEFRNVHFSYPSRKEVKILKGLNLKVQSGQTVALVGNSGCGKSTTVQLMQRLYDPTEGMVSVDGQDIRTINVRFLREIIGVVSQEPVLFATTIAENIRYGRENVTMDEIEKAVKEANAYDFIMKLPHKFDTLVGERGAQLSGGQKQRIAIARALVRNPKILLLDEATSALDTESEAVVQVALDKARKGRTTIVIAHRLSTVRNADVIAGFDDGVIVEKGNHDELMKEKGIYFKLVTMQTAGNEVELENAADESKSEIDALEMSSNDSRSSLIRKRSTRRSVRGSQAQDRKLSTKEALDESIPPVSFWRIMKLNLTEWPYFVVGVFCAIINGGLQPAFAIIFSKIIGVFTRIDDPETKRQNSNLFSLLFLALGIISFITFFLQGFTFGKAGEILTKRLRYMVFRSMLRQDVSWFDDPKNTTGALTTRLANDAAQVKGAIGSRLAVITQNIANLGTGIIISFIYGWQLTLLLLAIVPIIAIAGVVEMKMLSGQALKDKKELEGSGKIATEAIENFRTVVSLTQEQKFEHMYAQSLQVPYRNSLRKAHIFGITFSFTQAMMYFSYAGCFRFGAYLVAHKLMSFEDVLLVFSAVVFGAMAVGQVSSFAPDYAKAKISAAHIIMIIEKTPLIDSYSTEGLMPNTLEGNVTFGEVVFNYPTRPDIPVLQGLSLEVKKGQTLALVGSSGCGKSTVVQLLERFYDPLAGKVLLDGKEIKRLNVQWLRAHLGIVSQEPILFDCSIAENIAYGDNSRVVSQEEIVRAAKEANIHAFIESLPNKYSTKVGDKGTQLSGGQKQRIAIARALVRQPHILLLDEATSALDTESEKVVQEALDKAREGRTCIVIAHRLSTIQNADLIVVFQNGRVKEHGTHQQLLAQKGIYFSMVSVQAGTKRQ

Row | SMILES | IC50 [1] [nM] | IC50 [2] [nM] | IC50 [3] [nM] | inhibition [4] [%] | IC50 [5] [nM] | IC50 [6] [nM] | IC50 [7] [nM] | IC50 [8] [nM] | IC50 [9] [nM] | IC50 [10] [nM] | IC50 [11] [nM] | IC50 [12] [nM] | activity at 20 min, 20 µM [13] [%] | Papp B→A [14] [×10⁻⁶ cm/s]
1 | CC[C@]1(NC(=O)c2ccc(C)c(C)c2)C[C@H]2CN(CCc3c([nH]c4ccccc34)[C@@](C(=O)OC)(c3cc4c(cc3OC)N(C)[C@H]3[C@@](O)(C(=O)OC)[C@H](OC(C)=O)[C@]5(CC)C=CCN6CC[C@]43[C@@H]65)C2)C1 | 4.5 to 4.6 | 7.6 to 9 | 3 | 67 | 5.8 | 3 | 6.1 | 4.8 | 1.4 | 2.3 |  |  |  | 
2 | CC[C@]1(NC(C)=O)C[C@H]2CN(CCc3c([nH]c4ccccc34)[C@@](C(=O)OC)(c3cc4c(cc3OC)N(C)[C@H]3[C@@](O)(C(=O)OC)[C@H](OC(C)=O)[C@]5(CC)C=CCN6CC[C@]43[C@@H]65)C2)C1 |  |  |  |  |  |  |  |  |  |  | 7500 | 65 |  | 
3 | CC(=O)O[C@H]1C(=O)[C@@]2(C)[C@H]([C@H](OC(=O)c3ccccc3)[C@]3(O)C[C@H](OC(=O)[C@H](O)[C@@H](NC(=O)c4ccccc4)c4ccccc4)C(C)=C1C3(C)C)[C@]1(OC(C)=O)CO[C@@H]1C[C@@H]2O [PACLITAXEL] | 4.1 | > 200 |  |  | 6.3 | 1.9 | 9.5 | 5.4 | 8.2 | 3 |  |  |  | 
4 | CC[C@]1(NC(=O)c2ccc(C#N)cc2)C[C@H]2CN(CCc3c([nH]c4ccccc34)[C@@](C(=O)OC)(c3cc4c(cc3OC)N(C)[C@H]3[C@@](O)(C(=O)OC)[C@H](OC(C)=O)[C@]5(CC)C=CCN6CC[C@]43[C@@H]65)C2)C1 | 3.1 | 60 | 4.4 | 56 |  |  |  |  |  |  |  |  |  | 
5 | CC[C@]1(NC(=O)c2ccccc2)C[C@H]2CN(CCc3c([nH]c4ccccc34)[C@@](C(=O)OC)(c3cc4c(cc3OC)N(C)[C@H]3[C@@](O)(C(=O)OC)[C@H](OC(C)=O)[C@]5(CC)C=CCN6CC[C@]43[C@@H]65)C2)C1 | 0.8 | 20 | 1.1 | 72 |  |  |  |  |  |  |  |  |  | 
6 | CC[C@]1(NC(=O)c2ccc(N(C)C)cc2)C[C@H]2CN(CCc3c([nH]c4ccccc34)[C@@](C(=O)OC)(c3cc4c(cc3OC)N(C)[C@H]3[C@@](O)(C(=O)OC)[C@H](OC(C)=O)[C@]5(CC)C=CCN6CC[C@]43[C@@H]65)C2)C1 |  | 4.1 | 0.18 | 88 |  |  |  |  |  |  |  |  |  | 
7 | CC[C@]1(NC=O)C[C@H]2CN(CCc3c([nH]c4ccccc34)[C@@](C(=O)OC)(c3cc4c(cc3OC)N(C)[C@H]3[C@@](O)(C(=O)OC)[C@H](OC(C)=O)[C@]5(CC)C=CCN6CC[C@]43[C@@H]65)C2)C1 |  |  |  |  |  |  |  |  |  |  | 6500 | 65 |  | 
8 | CC[C@]1(O)C[C@@H]2CN(CCc3c([nH]c4ccccc34)[C@@](C(=O)OC)(c3cc4c(cc3OC)N(C)[C@H]3[C@@](O)(C(=O)OC)[C@H](OC(C)=O)[C@]5(CC)C=CCN6CC[C@]43[C@@H]65)C2)C1 [VINBLASTINE] |  | 110 to 600 |  | 50 to 61 | 37 | 5.1 | 20 | 14 |  |  |  |  | 87 | 38.2
9 | CC[C@]1(NC(=O)c2ccc3c(c2)CCCO3)C[C@H]2CN(CCc3c([nH]c4ccccc34)[C@@](C(=O)OC)(c3cc4c(cc3OC)N(C)[C@H]3[C@@](O)(C(=O)OC)[C@H](OC(C)=O)[C@]5(CC)C=CCN6CC[C@]43[C@@H]65)C2)C1 | 0.5 to 0.7 | 1.8 to 4.9 | 0.4 | 98 | 1.4 | 0.8 | 2.4 | 1.2 | 0.8 | 1 |  |  |  | 
